Common to all, as to format: cell-based, human
One test concerns PDX1 expression. The test is described as follows: FGF inhibition assays: PDX1 expression in FGF2-treated hPS cell-derived definitive endoderm. The note with it: for PDX1 expression: with FGF2 (64 ng/ml), real-time PCR, fold vs control at day eleven. As for the experimental part:
FGF receptor inhibition assays were performed by adding SU5402 (Calbiochem; […]), LY294002 (Cell Signalling technology; 12.5 μM) and U1026 (Cell Signalling technology; 10 μM) to the medium following DE induction at day three. Control cultures were treated with equal volume of the diluent DMSO. Fresh medium supplemented with appropriate inhibitor was added daily. Two to three samples were taken from separate wells at different time points (day 9-12) for mRNA analysis for each independent experiment.
(§1) Total RNA was extracted with GenElute Mammalian total RNA kit (Sigma-Aldrich). Total RNA concentrations were measured with the NanoDrop ND-1000 spectrophotometer (Nanodrop Technologies). Reverse transcription was performed with SuperScript III, according to the manufacturer's instructions, using 2.5 μM random hexamer and 2.5 μM oligo(dT) (Invitrogen). Real-time PCR measurements were performed on an ABI PRISM 7900HT Sequence Detector System (Applied Biosystems). 20 μl reactions containing 10 μl SuperMix-UDG w/ROX, 400 nM of each primer, 0.125× SYBR Green I (all reagents from Invitrogen) were used. Primer sequences are available as supplementary data (FIG. 6). Formation of expected PCR products was confirmed by agarose gel electrophoresis and melting curve analysis. Gene expression data was normalized against ACTB or RPL7 expression. […] Real-time PCR data analysis was performed as described (Bustin, 2000; Stahlberg et al., 2005).
Background: Quantitative PCR measures a nucleic acid by following its amplification.

Test [1] relates to hPS cell derived definitive endoderm. Put plainly: Real-time PCR marker expression in hPS cell-derived definitive endoderm treated with FGF2. As for the experimental part: hPS cells were seeded at a density of 12,000-24,000 cells/cm^2 and cultured until confluence. hPS cells were then differentiated into definitive endoderm as described previously (D'Amour et al., 2005). Briefly, cells were washed in PBS and treated with 100 ng/ml Activin A (R&D systems) and 25 ng/ml Wingless-type MMTV integration site family, member 3A (Wnt3a) in RPM! 1640 (GIBCO, Invitrogen) for three days in low serum (0-0.2% FBS).
(§2) At day three, cells were washed with PBS and human FGF2 (Invitrogen) was added at different concentrations (0-256 ng/ml according to specifications in the results) in a KO-DMEM based medium containing 1% Penicillin-streptomycin, 1% Glutamax, 1% non-essential amino acids, 0.1mM beta-Mercaptoethanol and 12% knockout serum replacement (all reagents from Invitrogen). Medium was changed every day. Control cultures without FGF2 were grown in parallel and cell morphology was monitored daily. At each time point, two to four biological replicates were taken for each independent experiment. More specifically, each well was divided into 4-5 equal pieces depending on the number of time points that were analyzed.
as §1

In a further test the test system is hPS cells. The test is described as follows: Immunofluorescence stainings of hPS cells treated with different FGF2 concentrations. As for the experimental part: as §2
hPS cells were fixed in 4% paraformaldehyde for 15 minutes at room temperature and washed three times in PBS-T (0.1% Triton X-100 in PBS). Fixed cells were permeabilized with 0.5% Triton X-100 in PBS for 15 minutes and blocked in PBS-T supplemented with 5% normal donkey serum (Jackson lmmunoresearch) for 1 h at room temperature before they were incubated overnight at 4° C. with the following primary antibodies and dilutions: goat polyclonal antibody (pAb) anti-FOXA-2 (kind gift from Palle Serup; Santa Cruz Biotechnology; 1:200), Guinea Pig pAb anti-PDX-1 (Chris Wright; BetaCellBiologyConsortium; 1:1500), Goat anti-PDX-1 (Chris Wright; BetaCellBiologyConsortium; 1:1500), rabbit pAb anti-NKX6.1 (BetaCellBiologyConsortium; 20 1:4000), mouse anti-CDX-2 (kind gift from Jonathan Draper; Biogenex; 1:500), rabbit pAb anti-SOX-9 (Chemicon; 1:500), rabbit anti-HNF-6 (Santa Cruz Biotechnology; 1:400), mouse mAb-anti PH-3 (Cell Signaling technology; 1:50), rabbit pAb-anti MKi67 (Novocastra; 1:200), rabbit anti-S0X2 (kind gift from Palle Serup; Chemicon; 1:250), goat anti-albumin (Bethyl laboratories; 1:300). After overnight incubation cells were washed three times for 5 minutes in PBS; and incubated with corresponding fluorescent secondary antibodies (Alexa 488, Cy3 and 647; Jackson lmmunoresearch and Invitrogen; diluted according to the manufacturer's instructions) for 60 min in PBS-T supplemented with 5% serum at room temperature. Cell nuclei were visualized by 4′-6′diamidino-2-phenylindole (DAPI) (Sigma-Aldrich; 1:1000) incubation for 4 minutes. Immunofluorescence stainings were detected and analyzed by epifluorescence microscopy (Zeiss Axioplan 2).
The percentage of PDX1 positive cells was calculated using the Imaris Imaging software (Bitplane). Ten randomly selected fields were chosen for each parameter. Using DAPI staining the software estimated the total area of cells. The area of the PDX1 positive cells was calculated in the same manner. Finally, the percentage of PDX1 positive cells was calculated by dividing the area of PDX1 positive cells by the DAPI positive area. Raw data from realtime PCR measurements was exported from SDS 2.2.1 and analyzed by Microsoft Excel graph pad. All data were statistically analyzed by multivariate comparison (one-way ANOVA) with Bonferroni correction. All values are depicted as mean±standard error of the mean (SEM) and considered significant if p<0.05.

For test [2], the system named is hPS-derived definitive endoderm. The test is described as follows: Differentiation towards PDX-1 positive pancreatic endoderm with a single FGF instead of FGF2. The note with it: used alone instead of FGF2.
The mark [3] stands for this setting: all FGF2 treated samples (4-256 ng/ml), day eleven, vs control.
Setting [4] is: higher FGF2 concentration, day eleven.
Setting [5] is: increasing FGF2 concentrations, day eleven, vs control (Activin A only).

The record followed here is patent publication US20120135519A1, “INDUCED DERIVATION OF SPECIFIC ENDODERM FROM hPS CELL-DERIVED DEFINITIVE ENDODERM” (Cellartis AB, priority 2009, published 2012).

Entries after “also recorded” stand apart in the source; their conditions may differ.

As for `Cc1c[nH]c(/C=C2\C(=O)Nc3ccccc32)c1CCC(=O)O` [SU5402], the “number of PDX1 positive cells” value in the test with PDX1 expression (SU5402 with FGF2 (64 ng/ml)) is recorded as “significantly decreased”. In addition, the PDX1 expression entry in the test with PDX1 expression (inhibitor 10 μM) is on record as “significantly reduced”.

In the case of `N#CC(=C(/N)Sc1ccccc1N)/C(C#N)=C(/N)Sc1ccccc1N` [U1026], the PDX1 expression entry with PDX1 expression (inhibitor 10 μM) was “diminished; also recorded: significantly reduced”.

For the molecule `O=c1cc(N2CCOCC2)oc2c(-c3ccccc3)cccc12` [LY294002], in the test on PDX1 expression (inhibitor 12.5 μM), the PDX1 expression entry was “no significant effect”.

Turning to “FGF2: human fibroblast growth factor 2 (Invitrogen) added to the culture medium”, the “PDX1 mRNA expression” value in test [1] (4 ng/ml FGF2, day eleven, vs control (Activin A only)) is listed as “remained unchanged”. In test [1] (64 ng/ml FGF2, day eleven), the “NKX6-1 mRNA expression” value is “peak expression” and the “PDX1 mRNA expression” value is listed as “peak expression”. In test [1] (256 ng/ml FGF2, day eleven), the “CDX2 mRNA expression” value was “upregulated”, the “FGF10 mRNA expression” value is recorded as “peak expression”, the “MNX1 mRNA expression” value is “upregulated” and the “NKX2-1 mRNA expression” value is on record as “peak expression”. In test [1] (256 ng/ml FGF2, day eleven), the “PTCH1 mRNA expression” value is given as “peak expression”, the “SHH mRNA expression” value is recorded as “peak expression”, the “SOX2 mRNA expression” value is on record as “significantly upregulated” and the “SPRY2 mRNA expression” value is on record as “peak expression”. In addition, in test [1] (FGF2 range tested, day eleven), the “CDX1 mRNA expression” value is recorded as “remained unaffected”. In test [1] (setting [3]), the “NGN3 mRNA expression” value was “upregulated” and the “SOX9 mRNA expression” value is “upregulated”. For the same molecule, in test [1] (all samples, day eleven), the “CPA1 mRNA expression” value is on record as “remained unchanged” and the “FOXA2 mRNA expression” value is “remained unchanged”. In addition, the CDX4 expression result in test [1] (any FGF2 concentration) was “not detected”. In test [1] (setting [4]), the FGFR1 expression entry is on record as “upregulated”, the FGFR2 expression result is recorded as “downregulated”, the FGFR3 expression entry is on record as “upregulated” and the FGFR4 expression entry is given as “downregulated”. Also, the “thyroglobulin (TG) mRNA expression” value in test [1] (increasing FGF2 concentrations (data not shown)) is given as “downregulated”. Besides, in test [1] (setting [5]), the “ALB mRNA expression” value is “downregulated”, the “HNF4A mRNA expression” value is recorded as “downregulated” and the “ONECUT1 mRNA expression” value is recorded as “downregulated”. For the same molecule, in test [1] (tested FGF2 concentrations, non-dose-dependent), the HHEX expression entry was “only moderately reduced”. For the same molecule, in the test with hPS cells (4 ng/ml FGF2), the “ALB+ cells (ALB stainings)” value was “abundant” and the “PDX1+ cells” value is reported as “absent”. Further, the “number of PDX1+ cells (percentage of PDX1 positive cells)” value in the test on hPS cells (64 ng/ml FGF2, Imaris Imaging software, PDX1 area / DAPI area) is 15-20%. In the test on hPS cells (256 ng/ml FGF2), the “ALB+ cells (ALB stainings)” value is recorded as “none” and the “number of CDX2+ cells” value is listed as “highest number”. For the same molecule, the “PDX1+ cells” value in the test on hPS cells (32, 64 and 256 ng/ml FGF2) was “always present”.

B1: FGF4: fibroblast growth factor tested alone instead of FGF2 (protein, UniProt P08620 31-206, looked up)
Fibroblast growth factor 4: APTAPNGTLEAELERRWESLVALSLARLPVAAQPKEAAVQSGAGDYLLGIKRLRRLYCNVGIGFHLQALPDGRIGGAHADTRDSLLELSPVERGVVSIFGVASRFFVAMSSKGKLYGSPFFTDECTFKEILLPNNYNAYESYKYPGMFIALSKNGKTKKGNRVSPTMKVTHFLPRL
For B1, the “induction of differentiation towards PDX-1 positive pancreatic endoderm” value in test [2] is “neither FGF4, FGF7 nor FGF10, when used alone instead of FGF2, is capable of inducing differentiation”.

B2: FGF7: fibroblast growth factor tested alone instead of FGF2 (protein, UniProt P21781 32-194, looked up)
Fibroblast growth factor 7: CNDMTPEQMATNVNCSSPERHTRSYDYMEGGDIRVRRLFCRTQWYLRIDKRGKVKGTQEMKNNYNIMEIRTVAVGIVAIKGVESEFYLAMNKEGKLYAKKECNEDCNFKELILENHYNTYASAKWTHNGGEMFVALNQKGIPVRGKKTKKEQKTAHFLPMAIT
With B2, in test [2], the “induction of differentiation towards PDX-1 positive pancreatic endoderm” value is “neither FGF4, FGF7 nor FGF10, when used alone instead of FGF2, is capable of inducing differentiation”.

B3: FGF10: fibroblast growth factor tested alone instead of FGF2 (protein, UniProt O15520 38-208, looked up)
Fibroblast growth factor 10: QALGQDMVSPEATNSSSSSFSSPSSAGRHVRSYNHLQGDVRWRKLFSFTKYFLKIEKNGKVSGTKKENCPYSILEITSVEIGVVAVKAINSNYYLAMNKKGKLYGSKEFNNDCKLKERIEENGYNTYASFNWQHNGRQMYVALNGKGAPRRGQKTRRKNTSAHFLPMVVHS
Regarding B3, the “induction of differentiation towards PDX-1 positive pancreatic endoderm” value in test [2] is reported as “neither FGF4, FGF7 nor FGF10, when used alone instead of FGF2, is capable of inducing differentiation”.
